A word on the solubility: it is the dissolved amount per volume that the medium holds. Broadly, the pEC50 is the negative decadic logarithm of the EC50, by convention in mol/L.

The nature of series [1]: Measurement of the solubility. The class given is physicochemical. The note with it: aqueous buffer, kinetic from dmso stock; PBS at pH 7.4, 24 h at RT, LC-MS, ratio of mass signals PBS/MeOH. How it is done:
Measurement of the Solubility
40 μL of a solution at 10 mM in DMSO of the sample was added to 1.96 mL MeOH or PBS at pH 7.4. The samples were then agitated during 24 h at RT, centrifuged during 5 min and then filtrated on filters of 0.45 μm size. 20 μL of each solution were then added to 180 μL MeOH and then analyzed by LC-MS. The solubility was determined as ratio of the surfaces of the mass signals PBS/MeOH.

A further series deals with M. tuberculosis. Kind of series: Potentiation of ethionamide cell test (High Content Screening). The class given is cell-based. The note with it: ligand concentration necessary to potentiate ten times the activity of ethionamide, constant ethionamide 0.1 μg/mL (1/10 of its CMI99), 50% inhibition of bacterial growth. On the procedure: Potentiation of Ethionamide Cell Test
The test used made it possible to ascertain that these compounds were capable of potentiating the bactericide activity of ethionamide on M. tuberculosis alone. This test was a “High Content Screening” (HCS) or dense content screening test. HCS tests were performed on cell cultures that enable certain phenotypic features of a microorganism (e.g. a bacterium) in a given environment to be studied. The phenotypic changes observed can range from the increase (or decrease) of the production of certain marked proteins to the modification of the morphology of the microorganism under consideration. The method is described in the following publication: “Ethionamide Boosters: Synthesis, Biological Activity, and Structure-Activity Relationships of a Series of 1,2,4-Oxadiazole EthR Inhibitors”, M. Flipo et al., Journal of Medicinal Chemistry, 2011, 54(8), 2994-3010.
This test aims to determine the ligand concentration necessary to potentiate ten times the activity of ethionamide (ETH).
To measure the ligand concentration necessary for potentiating ten times the activity of ETH, a constant concentration of ethionamide (0.1 μg/mL corresponding to 1/10 of its CMI99) was chosen. By varying the ligand concentration, the concentration necessary to inhibit 50% of the bacterial growth, i.e. the concentration necessary to potentiate ten times the activity of ethionamide, was determined. This concentration was denoted EC50.

pEC50: −log10 of the molar value.

In the case of `O=C(CCC(F)(F)F)N1CCC(c2ccccc2)CC1` [BDM_44647], the solubility at 24 h in series [1] came out at 50.4 µg/mL. The pEC50 with M. tuberculosis (Table I) and in the series with M. tuberculosis (Table III) was 9.10 throughout.
Regarding `O=C(CCC(F)(F)F)N1CCN(c2ccc(F)cc2)CC1` [BDM_44819], in the series on M. tuberculosis (Table III), the pEC50 is 7.57.
Same read-out and setting: with `O=C(CCC(F)(F)F)N1CCC(c2ccc(O)cc2)CC1` [BDM_45572] the figure was 6.55.
Turning to `O=C(CCC(F)(F)F)N1CCC(c2ccc(F)cc2)C1` (stereo not shown) [BDM_70717], the pEC50 with M. tuberculosis (Table I) and with M. tuberculosis (Table III) was 8.05 each time.
On to `Cc1cccc(C2CCN(C(=O)CCC(F)(F)F)CC2)c1` [BDM_70664], for which, in the series on M. tuberculosis (Table III), the pEC50 was 9.00.
As for `O=C(CCC(F)(F)F)N1CCC(c2cccc(Cl)c2)CC1` [BDM_70668], in the series with M. tuberculosis (Table III), the pEC50 was 9.30.
The same measure, in the same setting: to `O=C(CCC(F)(F)F)N1CCC(c2ccncc2)CC1` [BDM_70542] belongs 6.48; to `O=C(CCC(F)(F)F)N1CCC(c2cccc(F)c2)CC1` [BDM_70531], 9.10.
Turning to `O=C(CCCC(F)(F)F)N1CCC(c2ccccc2)CC1` [BDM_44648], the solubility at 24 h in series [1] was 42.9 µg/mL. The pEC50 in the series with M. tuberculosis (Table I) and in the series on M. tuberculosis (Table III) was greater than 8.00 each time.
`O=C(CCC(F)(F)F)N1CCC(c2ccc(C(F)(F)F)cc2)CC1` [BDM_70667]: the pEC50 in the series with M. tuberculosis (Table III) is 6.52.
`CC(C)CCC(=O)N1CCN(c2ccc(F)cc2)CC1` [BDM_44821]: the pEC50 in the series on M. tuberculosis (Table II) and in the series with M. tuberculosis (Table III) was 7.00 in each case.
Take `Cc1ccc(C2CCN(C(=O)CCC(F)(F)F)CC2)cc1` [BDM_70663]: the pEC50 with M. tuberculosis (Table III) is 7.59.
Consider `CC(C)CCC(=O)N1CCN(c2ccc(Cl)cc2)CC1` [BDM_44813], for which the pEC50 with M. tuberculosis (Table II) and in the series with M. tuberculosis (Table III) was 7.00 each time.
As for `COc1ccccc1C1CCN(C(=O)CCC(F)(F)F)CC1` [BDM_70540], in the series with M. tuberculosis (Table III), the pEC50 is 6.85.
As to `O=C(CCCC(F)(F)F)N1CCN(c2ccc(Cl)cc2)CC1` [BDM_44812], the pEC50 in the series on M. tuberculosis (Table III) was greater than 7.70.
For the compound `CC(C)CCC(=O)N1CCC(c2ccccc2)CC1` [BDM_44649], the pEC50 in the series with M. tuberculosis (Table II) and in the series on M. tuberculosis (Table III) was 7.22 each time.
For `O=C(CCCC(F)(F)F)N1CCN(c2ccc(F)cc2)CC1` [BDM_44820], the pEC50 in the series on M. tuberculosis (Table III) is 6.85.
Regarding `O=C(CCC(F)(F)F)N1CCC(c2ccccc2C(F)(F)F)CC1` [BDM_70536], in the series with M. tuberculosis (Table III), the pEC50 was 6.11.
`O=C(CCC(F)(F)F)N1CCC(c2c(F)cc(F)cc2F)CC1` [BDM_71148]: in the series on M. tuberculosis (Table III), the pEC50 is 9.00.
Regarding `O=C(CCC(F)(F)F)N1CCC(c2ccc(F)cc2)CC1` [BDM_44751], the solubility at 24 h in series [1] was found to be 51.9 µg/mL. Moreover, the negative logarithm of the EC50 (pEC50) in the series with M. tuberculosis (Table I) and in the series on M. tuberculosis (Table III) was 9.00 in each case.
As for `O=C(CCC(F)(F)F)N1CCC(c2ccc(Cl)c(Cl)c2)CC1` [BDM_70716], in the series with M. tuberculosis (Table III), the pEC50 is 7.60.
On to `O=C(CCC(F)(F)F)N1CCN(c2ccc(Cl)cc2)CC1` [BDM_44811], for which the pEC50 with M. tuberculosis (Table III) was 8.00.
`O=C(CCC(F)(F)F)N1CCN(c2ccc(F)cc2F)CC1` [BDM_70669]: the pEC50 with M. tuberculosis (Table III) was 7.68.
`COc1ccc(C2CCN(C(=O)CCC(F)(F)F)CC2)cc1` [BDM_70537]: the pEC50 with M. tuberculosis (Table III) was 8.70.
`Cc1ccccc1C1CCN(C(=O)CCC(F)(F)F)CC1` [BDM_70665]: in the series on M. tuberculosis (Table III), the pEC50 is 7.46.
Same read-out and setting: with `O=C(CCC(F)(F)F)N1CCN(c2ccccc2)CC1` [BDM_44808] the figure was 8.00; with `O=C(CCC(F)(F)F)N1CCN(Cc2ccccc2)CC1` [BDM_70719], 5.96.
Turning to `O=C(CCC(F)(F)F)N1CCC(c2ccccc2F)CC1` [BDM_70666], the pEC50 in the series on M. tuberculosis (Table III) is 9.00.
On to `O=C(CCC(F)(F)F)N1CCC(c2cccc(C(F)(F)F)c2)CC1` [BDM_70546], for which the pEC50 in the series with M. tuberculosis (Table III) is 9.00.
`COc1cccc(C2CCN(C(=O)CCC(F)(F)F)CC2)c1` [BDM_70538]: the pEC50 in the series on M. tuberculosis (Table III) is 6.85.
As to `O=C(CCC(F)(F)F)N1CCC(Cc2ccccc2)CC1` [BDM_70670], the pEC50 with M. tuberculosis (Table III) was 7.27.
Still for that read-out and setting: to `O=C(CCCC(F)(F)F)N1CCN(c2ccccc2)CC1` [BDM_44809] belongs 7.15; to `O=C(CCC(F)(F)F)N1CCC(c2ccccc2Cl)CC1` [BDM_70534], 6.96.
Turning to `CC(C)CCC(=O)N1CCN(c2ccccc2)CC1` [BDM_44810], the pEC50 in the series on M. tuberculosis (Table II) and in the series with M. tuberculosis (Table III) was 7.22 each time.
Consider `O=C(CCC(F)(F)F)N1CCC(c2ccc(Cl)cc2)CC1` [BDM_70535], for which, in the series with M. tuberculosis (Table III), the pEC50 is 6.92.

Values taken from patent US9957249B2, “Saturated nitrogen and N-acylated heterocycles potentiating the activity of an active antibiotic against Mycobacteria” (Universite de Droit et de la Sante de Lille 2, priority 2012, dated 2018).
